Results: patent publication US9326515B2, “Fungicidal 3-[(1,3-thiazol-4-ylmethoxyimino)(phenyl)methyl]-2-substituted-1,2,4-oxadiazol-5(2H)-one derivatives” (BAYER INTELLECTUAL PROPERTY GMBH, priority 2011, dated 2016)

tested on: Phytophthora infestans; test: not given; format: in vivo; conditions: 100 ppm of active ingredient, spray on young tomato plants, inoculated one day after treatment, evaluated 7 days after inoculation

| Compound | Eff. % |
| --- | --- |
| Cn1oc(=O)nc1C(=NOCc1csc(NC(=O)C2(C)CC2)n1)c1ccccc1 [Example 16] | 97% |
| Cn1oc(=O)nc1C(=NOCc1csc(NC(=O)C2CCc3ccccc3C2)n1)c1ccccc1 (centres unmarked) [Example 26] | 92% |
| Cn1oc(=O)nc1C(=NOCc1csc(NC(=O)C(C)(C)C)n1)c1ccccc1 [Example 3] | 84% |
| Cc1cccc2c1OC(C(=O)Nc1nc(CON=C(c3ccccc3)c3nc(=O)on3C)cs1)CO2 (centres unmarked) [Example 25] | 92% |
| Cc1ccc(OC(C)C(=O)Nc2nc(CON=C(c3ccccc3)c3nc(=O)on3C)cs2)cc1 (centres unmarked) [Example 27] | 95% |
| Cn1oc(=O)nc1C(=NOCc1csc(NC(=O)OC2CC3CCC2C3)n1)c1ccccc1 (centres unmarked) [Example 6] | 90% |
| Cn1oc(=O)nc1C(=NOCc1csc(NC(=O)c2ccccc2)n1)c1ccccc1 [Example 15] | 92% |
| CCCCC(CC)COC(=O)Nc1nc(CON=C(c2ccccc2)c2nc(=O)on2C)cs1 (centres unmarked) [Example 7] | 85% |

tested on: Plasmopara viticola; test: Example I: in vivo preventive test on Plasmopara viticola (grapevines); conditions: 10 ppm of active ingredient, spray on young grapevine plants, inoculated after spray coating dried, evaluated 6 days after inoculation
Experimental: To produce a suitable preparation of active compound, 1 part by weight of active compound is mixed with the stated amounts of solvent and emulsifier, and the concentrate is diluted with water to the desired concentration.
To test for preventive activity, young plants are sprayed with the preparation of active compound at the stated rate of application. After the spray coating has dried on, the plants are inoculated with an aqueous spore suspension of Plasmopara viticola and then remain for 1 day in an incubation cabinet at approximately 20° C. and a relative atmospheric humidity of 100%. The plant is subsequently placed for 4 days in a greenhouse at approximately 21° C. and a relative atmospheric humidity of approximately 90%. The plants are then misted and placed for 1 day in an incubation cabinet.
The test is evaluated 6 days after the inoculation. 0% means an efficacy which corresponds to that of the untreated control, while an efficacy of 100% means that no disease is observed.

| Compound | Eff. % |
| --- | --- |
| Cn1oc(=O)nc1C(=NOCc1csc(NC(=O)C2(C)CC2)n1)c1ccccc1 [Example 16] | 91% |
| Cn1oc(=O)nc1C(=NOCc1csc(NC(=O)C2CCc3ccccc3C2)n1)c1ccccc1 (centres unmarked) [Example 26] | 94% |
| Cc1cccc2c1OC(C(=O)Nc1nc(CON=C(c3ccccc3)c3nc(=O)on3C)cs1)CO2 (centres unmarked) [Example 25] | 96% |
| Cc1ccc(OC(C)C(=O)Nc2nc(CON=C(c3ccccc3)c3nc(=O)on3C)cs2)cc1 (centres unmarked) [Example 27] | 96% |

tested on: not given; test: not given; conditions: pH 2.7

| Compound | LogP |
| --- | --- |
| CC#CCOC(=O)Nc1nc(CO/N=C(/c2ccccc2)c2nc(=O)on2C)cs1 [Example 47] | 2.66 |
| Cn1oc(=O)nc1C(=NOCc1csc(NC(=O)Cc2ccccc2)n1)c1ccccc1 [Example 65] | 2.82 |
| Cn1oc(=O)nc1C(=NOCc1csc(NC(=O)OCCCCC(F)(F)F)n1)c1ccccc1 [Example 82] | 3.27 |
| Cn1oc(=O)nc1/C(=N\OCc1csc(NC(=O)CCC2CCCC2)n1)c1ccccc1 [Example 43] | 3.58 |
| CC(C(=O)Nc1nc(CO/N=C(/c2ccccc2)c2nc(=O)on2C)cs1)c1ccccc1 (racemic) [Example 49] | 3.15 |
| C=CCC(C)OC(=O)Nc1nc(CON=C(c2ccccc2)c2nc(=O)on2C)cs1 (centres unmarked) [Example 76] | 3.15 |
| COc1ccc(CC(=O)Nc2nc(CON=C(c3ccccc3)c3nc(=O)on3C)cs2)cc1 [Example 70] | 2.80 |
| COc1ccc(OC(=O)Nc2nc(CO/N=C(/c3ccccc3)c3nc(=O)on3C)cs2)cc1 [Example 97] | 2.94 |
| Cn1oc(=O)nc1C(=NOCc1csc(NC(=O)Cc2cccs2)n1)c1ccccc1 [Example 75] | 2.71 |
| COc1cccc(C(=NOCc2csc(NC(=O)OCCc3ccccc3)n2)c2nc(=O)on2C)c1 [Example 85] | 3.39 |
| CC(C)CC(=O)Nc1nc(CO/N=C(/c2ccccc2)c2nc(=O)on2C)cs1 [Example 62] | 2.75 |
| CC#CCCOC(=O)Nc1nc(CO/N=C(/c2ccccc2)c2nc(=O)on2C)cs1 [Example 54] | 2.80 |
| Cn1oc(=O)nc1C(=NOCc1csc(NC(=O)C2(C)CC2)n1)c1ccccc1 [Example 16] | 2.66 |
| COCCn1oc(=O)nc1/C(=N\OCc1csc(NC(=O)OCCc2ccccc2)n1)c1ccccc1 [Example 39] | 3.55 |
| Cn1oc(=O)nc1C(=NOCc1csc(NC(=O)OCC2CCCCC2)n1)c1ccccc1 [Example 63] | 3.92 |
| CCC(C)(C)C(=O)Nc1nc(CON=C(c2ccccc2)c2nc(=O)on2C)cs1 [Example 87] | 3.13 |
| Cn1oc(=O)nc1C(=NOCc1csc(NC(=O)C2CCc3ccccc3C2)n1)c1ccccc1 (centres unmarked) [Example 26] | 3.55 |
| CC(C)C(C)OC(=O)Nc1nc(CO/N=C(/c2ccccc2)c2nc(=O)on2C)cs1 (racemic) [Example 46] | 3.35 |
| CCCCC(=O)Nc1nc(CO/N=C(/c2ccccc2)c2nc(=O)on2C)cs1 [Example 60] | 2.80 |
| Cn1oc(=O)nc1C(=NOCc1csc(NC(=O)C(C)(C)C)n1)c1ccccc1 [Example 3] | 2.84 |
| CCn1oc(=O)nc1/C(=N\OCc1csc(NC(=O)COc2ccccc2)n1)c1ccccc1 [Example 38] | 3.17 |
| Cn1oc(=O)nc1C(=NOCc1csc(NC(=O)C2(C)CCCCC2)n1)c1ccccc1 [Example 74] | 3.58 |
| Cc1cccc2c1OC(C(=O)Nc1nc(CON=C(c3ccccc3)c3nc(=O)on3C)cs1)CO2 (centres unmarked) [Example 25] | 3.42 |
| CC#CCC(C)OC(=O)Nc1nc(CON=C(c2ccccc2)c2nc(=O)on2C)cs1 (centres unmarked) [Example 81] | 3.06 |

| Compound | LogP |
| --- | --- |
| CCN(O)C(=N)/C(=N\OCc1csc(NC(=O)COc2ccccc2)n1)c1ccccc1 [Example V-1] | 2.42 |
| Cc1ccc(OC(C)C(=O)Nc2nc(CON=C(c3ccccc3)c3nc(=O)on3C)cs2)cc1 (centres unmarked) [Example 27] | 3.46 |
| Cn1oc(=O)nc1/C(=N\OCc1csc(NC(=O)OC(C)(C)C(Cl)(Cl)Cl)n1)c1ccccc1 [Example 51] | 3.96 |
| Cc1cccc(C(=O)Nc2nc(CON=C(c3ccccc3)c3nc(=O)on3C)cs2)c1 [Example 68] | 3.19 |
| Cc1ccc(C(=O)Nc2nc(CO/N=C(/c3ccccc3)c3nc(=O)on3C)cs2)cc1 [Example 48] | 3.17 |
| C=CCCCCOC(=O)Nc1nc(CON=C(c2ccccc2)c2nc(=O)on2C)cs1 [Example 64] | 3.51 |
| Cn1oc(=O)nc1/C(=N\OCc1csc(NC(=O)OCCC2CCCCC2)n1)c1ccccc1 [Example 45] | 4.21 |
| Cn1oc(=O)nc1C(=NOCc1csc(NC(=O)OCC2CC2)n1)c1ccccc1 [Example 88] | 2.84 |
| Cn1oc(=O)nc1C(=NOCc1csc(NC(=O)OCC#Cc2ccccc2)n1)c1ccccc1 [Example 73] | 3.44 |
| CCCCCOC(=O)Nc1nc(CON=C(c2ccccc2)c2nc(=O)on2C)cs1 [Example 69] | 3.51 |
| Cn1oc(=O)nc1C(=NOCc1csc(NC(=O)OC2CC3CCC2C3)n1)c1ccccc1 (centres unmarked) [Example 6] | 3.60 |
| CC(OC(=O)Nc1nc(CO/N=C(/c2ccccc2)c2nc(=O)on2C)cs1)C1CCCC1 (centres unmarked) [Example 95] | 3.85 |
| Cn1oc(=O)nc1/C(=N\OCc1csc(NC(=O)CCc2ccccc2)n1)c1ccccc1 [Example 57] | 3.09 |
| CCC#CCOC(=O)Nc1nc(CON=C(c2ccccc2)c2nc(=O)on2C)cs1 [Example 72] | 2.98 |
| Cn1oc(=O)nc1C(=NOCc1csc(NC(=O)c2ccc(F)cc2)n1)c1ccccc1 [Example 91] | 3.00 |
| Cn1oc(=O)nc1C(=NOCc1csc(NC(=O)Oc2ccc(F)cc2)n1)c1ccccc1 [Example 5] | 3.02 |
| COc1cccc(/C(=N/OCc2csc(NC(=O)C(C)(C)Oc3ccccc3)n2)c2nc(=O)on2C)c1 [Example 36] | 3.63 |
| CCCCC(C)C(=O)Nc1nc(CO/N=C(/c2ccccc2)c2nc(=O)on2C)cs1 (racemic) [Example 42] | 3.42 |
| Cn1oc(=O)nc1C(=NOCc1csc(NC(=O)OCCCC2CCCCC2)n1)c1ccccc1 [Example 83] | 4.71 |
| CC=CCCCOC(=O)Nc1nc(CON=C(c2ccccc2)c2nc(=O)on2C)cs1 [Example 77] | 3.55 |
| Cn1oc(=O)nc1C(=NOCc1csc(NC(=O)OCCCC2CC2)n1)c1ccccc1 [Example 79] | 3.51 |
| COc1cccc(C(=O)Nc2nc(CON=C(c3ccccc3)c3nc(=O)on3C)cs2)c1 [Example 71] | 2.98 |
| Cn1oc(=O)nc1/C(=N\OCc1csc(NC(=O)OCCCCl)n1)c1ccccc1 [Example 93] | 2.80 |
| COc1cccc(C(=NOCc2csc(NC(=O)COc3ccccc3)n2)c2nc(=O)on2C)c1 [Example 84] | 3.02 |

| Compound | LogP |
| --- | --- |
| CC(OC(=O)Nc1nc(CON=C(c2ccccc2)c2nc(=O)on2C)cs1)C(C)(C)C (centres unmarked) [Example 92] | 3.65 |
| CCn1oc(=O)nc1/C(=N\OCc1csc(NC(=O)OCCc2ccccc2)n1)c1ccccc1 [Example 37] | 3.55 |
| CC(CC1CC1)OC(=O)Nc1nc(CON=C(c2ccccc2)c2nc(=O)on2C)cs1 (centres unmarked) [Example 80] | 3.42 |
| Cn1oc(=O)nc1/C(=N\OCc1csc(NC(=O)OCc2ccccc2)n1)c1ccccc1 [Example 96] | 3.17 |
| Cn1oc(=O)nc1C(=NOCc1csc(NC(=O)c2ccccc2)n1)c1ccccc1 [Example 15] | 2.88 |
| Cn1oc(=O)nc1/C(=N\OCc1csc(NC(=O)OCCC2CCCC2)n1)c1ccccc1 [Example 52] | 3.96 |
| Cn1oc(=O)nc1/C(=N\OCc1csc(NC(=O)OCC(C)(C)C)n1)c1ccccc1 [Example 61] | 3.39 |
| COc1cccc(C(=NOCc2csc(NC(=O)CC3CCCC3)n2)c2nc(=O)on2C)c1 [Example 86] | 3.25 |
| CCCCC(CC)COC(=O)Nc1nc(CON=C(c2ccccc2)c2nc(=O)on2C)cs1 (centres unmarked) [Example 7] | 4.56 |
| C#CCCCC(=O)Nc1nc(CO/N=C(/c2ccccc2)c2nc(=O)on2C)cs1 [Example 40] | 2.54 |
| Cn1oc(=O)nc1/C(=N\OCc1csc(NC(=O)CC2CCCC2)n1)c1ccccc1 [Example 53] | 3.19 |
| C#CCOC(=O)Nc1nc(CON=C(c2ccccc2)c2nc(=O)on2C)cs1 [Example 67] | 2.49 |
| Cn1oc(=O)nc1C(=NOCc1csc(NC(=O)OCCCC2CCCC2)n1)c1ccccc1 [Example 66] | 4.36 |
| CC(C)CCOC(=O)Nc1nc(CO/N=C(/c2ccccc2)c2nc(=O)on2C)cs1 [Example 55] | 3.44 |
| CCCCOC(=O)Nc1nc(CO/N=C(/c2ccccc2)c2nc(=O)on2C)cs1 [Example 59] | 3.13 |
| Cn1oc(=O)nc1/C(=N\OCc1csc(NC(=O)C2CCCC2)n1)c1ccccc1 [Example 58] | 2.88 |
| CC(C)[C@@H]1CC[C@@H](C)C[C@H]1OC(=O)Nc1nc(CO/N=C(/c2ccccc2)c2nc(=O)on2C)cs1 [Example 50] | 4.91 |
| C=C(C)COC(=O)Nc1nc(CO/N=C(/c2ccccc2)c2nc(=O)on2C)cs1 [Example 94] | 2.92 |
| Cn1oc(=O)nc1/C(=N\OCc1csc(NC(=O)CCC2CCCCC2)n1)c1ccccc1 [Example 41] | 3.92 |
| Cn1oc(=O)nc1C(=NOCc1csc(NC(=O)c2csc3ccccc23)n1)c1ccccc1 [Example 89] | 3.57 |
| CC(OC(=O)Nc1nc(CO/N=C(/c2ccccc2)c2nc(=O)on2C)cs1)C1CCCCC1 (racemic) [Example 56] | 4.31 |
| Cn1oc(=O)nc1C(=NOCc1csc(NC(=O)C2CCCCC2)n1)c1ccccc1 [Example 90] | 3.19 |
| Cn1oc(=O)nc1C(=NOCc1csc(NC(=O)OCCC2CC2)n1)c1ccccc1 [Example 78] | 3.15 |
